± gives the expanded uncertainty stated by the source.
Details: 343.15 K, Liquid, Vibrating tube method

CCCCCC(=O)OCC(COC(=O)CCCCC)(COC(=O)CCCCC)COC(=O)CCCCC [pentaerythritol tetrahexanoate]
Details	mass density [kg/m3]
21939 kPa	973 ± 1.2
21970 kPa	972.9 ± 1.2
21994 kPa	973 ± 1.2
22600 kPa	973.4 ± 1.2
22626 kPa	973.4 ± 1.2
22658 kPa	973.4 ± 1.2
22686 kPa	973.3 ± 1.2
22712 kPa	973.5 ± 1.2
22744 kPa	973.6 ± 1.2
22771 kPa	973.5 ± 1.2
22798 kPa	973.5 ± 1.2
22831 kPa	973.5 ± 1.2
22858 kPa	973.7 ± 1.2
22886 kPa	973.6 ± 1.2
22919 kPa	973.6 ± 1.2
22946 kPa	973.6 ± 1.2
22973 kPa	973.7 ± 1.2
23356 kPa	974 ± 1.2
23808 kPa	974.2 ± 1.2
23832 kPa	974.2 ± 1.2
23863 kPa	974.2 ± 1.2
23889 kPa	974.2 ± 1.2
24332 kPa	974.5 ± 1.2
24359 kPa	974.5 ± 1.2
24391 kPa	974.4 ± 1.2
24418 kPa	974.6 ± 1.2
24449 kPa	974.6 ± 1.2
24476 kPa	974.6 ± 1.2
24504 kPa	974.6 ± 1.2
24536 kPa	974.6 ± 1.2
24563 kPa	974.7 ± 1.2
24590 kPa	974.6 ± 1.2
24623 kPa	974.7 ± 1.2
24651 kPa	974.6 ± 1.2
24678 kPa	974.6 ± 1.2
24711 kPa	974.8 ± 1.2
24738 kPa	974.7 ± 1.2
24766 kPa	974.8 ± 1.2
24799 kPa	974.9 ± 1.2
24827 kPa	974.8 ± 1.2
24855 kPa	974.9 ± 1.2
24888 kPa	974.9 ± 1.2
24917 kPa	975 ± 1.2
24945 kPa	974.9 ± 1.2
24979 kPa	974.9 ± 1.2
25008 kPa	974.9 ± 1.2
25036 kPa	975 ± 1.2
25070 kPa	975 ± 1.2
25099 kPa	975.2 ± 1.2
25128 kPa	975 ± 1.2
25162 kPa	975.1 ± 1.2
25191 kPa	975.2 ± 1.2
25220 kPa	975.2 ± 1.2
25249 kPa	975.1 ± 1.2
25284 kPa	975.1 ± 1.2
25313 kPa	975.2 ± 1.2
25349 kPa	975.2 ± 1.2
25379 kPa	975.3 ± 1.2
25408 kPa	975.2 ± 1.2
25438 kPa	975.4 ± 1.2
25473 kPa	975.3 ± 1.2
25502 kPa	975.2 ± 1.2
25532 kPa	975.2 ± 1.2
25562 kPa	975.2 ± 1.2
25598 kPa	975.4 ± 1.2
25628 kPa	975.4 ± 1.2
25657 kPa	975.4 ± 1.2
25693 kPa	975.4 ± 1.2
25724 kPa	975.5 ± 1.2
26078 kPa	975.6 ± 1.2
26108 kPa	975.7 ± 1.2
26134 kPa	975.6 ± 1.2
26161 kPa	975.8 ± 1.2
26188 kPa	975.7 ± 1.2
26213 kPa	975.8 ± 1.2
26245 kPa	975.8 ± 1.2
26271 kPa	975.7 ± 1.2
26298 kPa	975.9 ± 1.2
26330 kPa	975.7 ± 1.2
26356 kPa	975.9 ± 1.2
26387 kPa	976 ± 1.2
26413 kPa	975.9 ± 1.2
26439 kPa	976 ± 1.2
26471 kPa	975.9 ± 1.2
26498 kPa	975.9 ± 1.2
26524 kPa	976 ± 1.2
26552 kPa	975.9 ± 1.2
26585 kPa	976 ± 1.2
26612 kPa	976.1 ± 1.2
26644 kPa	976 ± 1.2
26671 kPa	976.1 ± 1.2
26873 kPa	976.3 ± 1.2
26906 kPa	976.2 ± 1.2
26934 kPa	976.2 ± 1.2
26962 kPa	976.3 ± 1.2
26990 kPa	976.1 ± 1.2
27023 kPa	976.3 ± 1.2
27051 kPa	976.1 ± 1.2
27079 kPa	976.3 ± 1.2
27113 kPa	976.4 ± 1.2
27141 kPa	976.3 ± 1.2
27174 kPa	976.3 ± 1.2
27202 kPa	976.4 ± 1.2
27230 kPa	976.3 ± 1.2
27264 kPa	976.5 ± 1.2
27293 kPa	976.4 ± 1.2
27322 kPa	976.5 ± 1.2
27351 kPa	976.4 ± 1.2
27385 kPa	976.5 ± 1.2
27414 kPa	976.6 ± 1.2
27449 kPa	976.6 ± 1.2
27478 kPa	976.5 ± 1.2
27508 kPa	976.5 ± 1.2
27537 kPa	976.6 ± 1.2
27572 kPa	976.6 ± 1.2
28317 kPa	977.1 ± 1.2
28347 kPa	977.2 ± 1.2
28372 kPa	977.1 ± 1.2
28396 kPa	977.2 ± 1.2
28427 kPa	977.3 ± 1.2
28453 kPa	977.2 ± 1.2
28479 kPa	977.2 ± 1.2
28503 kPa	977.2 ± 1.2
28528 kPa	977.2 ± 1.2
28558 kPa	977.3 ± 1.2
28583 kPa	977.4 ± 1.2
29079 kPa	977.5 ± 1.2
29105 kPa	977.6 ± 1.2
29132 kPa	977.6 ± 1.2
29164 kPa	977.6 ± 1.2
29190 kPa	977.6 ± 1.2
29216 kPa	977.6 ± 1.2
29248 kPa	977.7 ± 1.2
29274 kPa	977.7 ± 1.2
29301 kPa	977.7 ± 1.2
29333 kPa	977.8 ± 1.2
29446 kPa	977.9 ± 1.2
29473 kPa	977.8 ± 1.2
29506 kPa	977.8 ± 1.2
29763 kPa	978.1 ± 1.2
29796 kPa	978.2 ± 1.2
29852 kPa	978.1 ± 1.2
29886 kPa	978.2 ± 1.2
29914 kPa	978.1 ± 1.2

From the NIST ThermoML archive (doi:10.1021/je060271a)
